Source: US8829203B2, “3′,6-substituted indirubins and their biological applications” (Centre National de la Recherche Scientifique (CNRS), priority 2008, dated 2014)

How the values were obtained:
GSK-3α/β = GSK-3α/β kinase assay (GS-1 substrate, 15 μM ATP); type: biochemical, porcine; conditions: 30° C., 30 min, read-out: GSK3 IC50
Experimental: (§1) Blank values were subtracted and activities calculated as pmoles of phosphate incorporated during a […] incubation. The activities were expressed in % of the maximal activity, i.e. in the absence of inhibitors. Controls were performed with appropriate dilutions of dimethylsulfoxide. Phosphorylation of the substrate was assessed by the P81 phosphocellulose assay.
GSK-3α/β was purified from porcine brain by affinity chromatography on immobilized axin^5. […] ATP (3,000 Ci/mmol; 10 mCi/ml) in a final volume of 30 μl. After 30 min. incubation at 30° C., 25 μl aliquots of supernatant were processed as described above.

CDK1/cyclin B = CDK1/cyclin B kinase assay (histone H1, 15 μM ATP); type: biochemical, starfish (Marthasterias glacialis); conditions: 30° C., 30 min
CDK5/p25 = CDK5/p25 (Homo sapiens, UniProt Q00535); assay: CDK5/p25 kinase assay (histone H1, 15 μM ATP); type: biochemical; conditions: 30° C., 30 min
Experimental: as §1
CDK5/p25 was reconstituted by mixing equal amounts of recombinant human CDK5 and p25 expressed in E. coli as GST (Glutathione-S-transferase) fusion proteins and purified by affinity chromatography on glutathione-agarose (p25 is a truncated version of p35, the 35 kDa CDK5 activator). Its activity was assayed with histone H1 in buffer C as described for CDK1/cyclin B.

[1] = tested on: Per2 promoter (PPer2) activity, Rat-1 fibroblasts; assay: Luminescence assay of circadian rhythmicity, Rat-1 fibroblasts PPer2::Fluc; type: cell-based; conditions: 10 μM, left continuously, monitored 4 days
Experimental: FIGS. 3a and 3b: the alteration of the circadian period in mammalian fibroblasts by the indirubin derivatives. Rat-1 fibroblasts stably transfected with a PPer2::Fluc reporter construct show a robust circadian rhythm of luminescence as a gauge of clock-controlled Per2 promoter (PPer2) activity. Cells were cultured up to 100% confluence and treated for 2 h with 0.1 μM dexamethasone to synchronize the oscillators. The medium was then replaced with assay medium supplemented with 0.1 mM luciferin and the luminescence rhythm was monitored for 4 days or more. Compounds were added to the culture dishes at 10 μM and left continuously. DMSO was used as a solvent control. Regression analyses were used to determine period and phase of the luminescence rhythms. 3a. Time-course of a typical luminescence rhythm recorded in control cells (◯) or cells treated with indirubin 15 (•). White arrows indicate the peaks of luminescence in control cells, black arrows indicate the peaks of luminescence in indirubin 15 treated cells. 3b. Period lengths calculated in cells exposed to various compounds. C, control; K, kenpaullone.
The cells were cultured in DMEM (11965-092, GIBCO/Invitrogen) supplemented with 5% FBS, 50 units/ml penicillin, and 50 μg/ml streptomycin in a 5% CO2 incubator at 37° C. […] The luminescence rhythm was monitored in a LumiCycle (Actimetrics Inc., Evanston, Ill., USA). […]

Chain of CDK5/p25 (Q00535 whole entry): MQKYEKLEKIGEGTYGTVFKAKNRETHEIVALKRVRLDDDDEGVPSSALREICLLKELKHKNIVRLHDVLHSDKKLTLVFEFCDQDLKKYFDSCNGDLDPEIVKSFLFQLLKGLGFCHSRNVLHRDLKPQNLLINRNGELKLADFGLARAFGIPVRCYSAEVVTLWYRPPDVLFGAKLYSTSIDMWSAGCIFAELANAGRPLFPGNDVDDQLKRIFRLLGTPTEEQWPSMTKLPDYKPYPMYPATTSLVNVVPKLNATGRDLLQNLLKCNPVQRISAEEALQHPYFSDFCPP
Chain of CDK5/p25 (Q15078 99-307 partner limits assumed): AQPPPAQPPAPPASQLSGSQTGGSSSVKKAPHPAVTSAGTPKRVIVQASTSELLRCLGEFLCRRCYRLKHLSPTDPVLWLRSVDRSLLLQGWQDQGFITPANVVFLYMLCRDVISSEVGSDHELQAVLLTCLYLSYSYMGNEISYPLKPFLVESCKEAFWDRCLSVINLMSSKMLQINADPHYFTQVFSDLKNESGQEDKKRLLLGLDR

O=C1Nc2cc(Br)ccc2/C1=C1/Nc2ccccc2/C1=N\OCCN1CCN(CCOCCO)CC1 [Cpd 15, (2′Z-3′E)-6-Bromoindirubin-3′-[O-(2-{4-[2-(2-hydroxyethoxy)-ethyl]piperazin-1-yl}ethyl)oxime]]
IC50 (GSK-3α/β): 14 nM
IC50 (CDK1/cyclin B): 900 nM
IC50 (CDK5/p25): 310 nM
Circadian period length of luminescence rhythm [1]: gradual shortening of the period length
